The record followed here is the supplement of paper PMC10307832.

Assay in all cases: relative viability (nuclei count vs DMSO), 5 days (fraction); higher = more cells survive
Compound in the test “Erlotinib + Foretinib”: C#Cc1cccc(Nc2ncnc3cc(OCCOC)c(OCCOC)cc23)c1 [Erlotinib] + COc1cc2c(Oc3ccc(NC(=O)C4(C(=O)Nc5ccc(F)cc5)CC4)cc3F)ccnc2cc1OCCCN1CCOCC1 [Foretinib] (partner 0.25 µM)
The procedure, abridged:
(§1)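 Relative viability equals treated-well nuclei counts divided by vehicle-well nuclei counts. Counts came from 4× images of lung cancer cell lines grown in 1536-well plates for 5 days after pin-tool dosing on the day after seeding. Dosing used one drug alone or a fixed anchor-drug dose plus five library-drug doses (not always all listed) in √10 steps, and values are medians of duplicate plates.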

Compound in the test “AT9283 + Dasatinib”: O=C(Nc1c[nH]nc1-c1nc2ccc(CN3CCOCC3)cc2[nH]1)NC1CC1 [AT9283] + Cc1nc(Nc2ncc(C(=O)Nc3c(C)cccc3Cl)s2)cc(N2CCN(CCO)CC2)n1 [Dasatinib] (partner 0.075 µM)
Put shortly:
as §1

Compound in the test “AT9283 + Luminespib”: O=C(Nc1c[nH]nc1-c1nc2ccc(CN3CCOCC3)cc2[nH]1)NC1CC1 [AT9283] + CCNC(=O)c1noc(-c2cc(C(C)C)c(O)cc2O)c1-c1ccc(CN2CCOCC2)cc1 [Luminespib] (partner 0.01 µM)
The procedure, abridged:
as §1

Compound in the test “AT9283 + Tozasertib”: O=C(Nc1c[nH]nc1-c1nc2ccc(CN3CCOCC3)cc2[nH]1)NC1CC1 [AT9283] + Cc1cc(Nc2cc(N3CCN(C)CC3)nc(Sc3ccc(NC(=O)C4CC4)cc3)n2)n[nH]1 [Tozasertib] (partner 0.1 µM)
The procedure, abridged:
as §1

Compound in the test “Erlotinib + Navitoclax”: C#Cc1cccc(Nc2ncnc3cc(OCCOC)c(OCCOC)cc23)c1 [Erlotinib] + CC1(C)CCC(c2ccc(Cl)cc2)=C(CN2CCN(c3ccc(C(=O)NS(=O)(=O)c4ccc(N[C@H](CCN5CCOCC5)CSc5ccccc5)c(S(=O)(=O)C(F)(F)F)c4)cc3)CC2)C1 [Navitoclax] (partner 0.5 µM)
The procedure, abridged: as §1

As to NCI-H1915, the relative viability in the test with Erlotinib + Foretinib (first compound 0.02 µM) amounted to 1.08; with Erlotinib + Foretinib (first compound 0.2 µM) it was 1.2; with Erlotinib + Foretinib (first compound 0.6325 µM), 1.12; with Erlotinib + Foretinib (first compound 2 µM) it was 1.1; with AT9283 + Dasatinib (first compound 0.003 µM), 0.276; in the test with AT9283 + Dasatinib (first compound 0.03 µM) it was 0.289. Further, the relative viability in the test with AT9283 + Dasatinib (first compound 0.09487 µM) stood at 0.141; in the test with AT9283 + Dasatinib (first compound 0.3 µM), 0.141; with AT9283 + Luminespib (first compound 0.003 µM) it was 0.729; with AT9283 + Luminespib (first compound 0.03 µM) it was 0.751; with AT9283 + Luminespib (first compound 0.09487 µM), 0.187; with AT9283 + Luminespib (first compound 0.3 µM), 0.213. Also, the relative viability in the test with AT9283 + Tozasertib (first compound 0.003 µM) was found to be 0.347; with AT9283 + Tozasertib (first compound 0.03 µM), 0.3; with AT9283 + Tozasertib (first compound 0.09487 µM), 0.195; in the test with AT9283 + Tozasertib (first compound 0.3 µM), 0.179; in the test with Erlotinib + Navitoclax (first compound 0.02 µM), 0.865; in the test with Erlotinib + Navitoclax (first compound 0.2 µM), 0.807. Moreover, the relative viability with Erlotinib + Navitoclax (first compound 0.6325 µM) came out at 0.841; with Erlotinib + Navitoclax (first compound 2 µM), 0.745.
For the cell line LU99A, the relative viability in the test with Erlotinib + Foretinib (first compound 0.02 µM) worked out at 0.861; with Erlotinib + Foretinib (first compound 0.2 µM), 0.833; with Erlotinib + Foretinib (first compound 0.6325 µM) it was 0.829; in the test with Erlotinib + Foretinib (first compound 2 µM), 0.678; in the test with AT9283 + Dasatinib (first compound 0.003 µM), 0.546; with AT9283 + Dasatinib (first compound 0.03 µM), 0.195. Besides, the relative viability is 0.229 with AT9283 + Dasatinib (first compound 0.09487 µM); 0.247 with AT9283 + Dasatinib (first compound 0.3 µM); 0.24 with AT9283 + Luminespib (first compound 0.003 µM); 0.301 with AT9283 + Luminespib (first compound 0.03 µM); 0.225 with AT9283 + Luminespib (first compound 0.09487 µM); 0.221 with AT9283 + Luminespib (first compound 0.3 µM). Also, the relative viability worked out at 0.268 with AT9283 + Tozasertib (first compound 0.003 µM); 0.247 with AT9283 + Tozasertib (first compound 0.03 µM); 0.226 with AT9283 + Tozasertib (first compound 0.09487 µM); 0.222 with AT9283 + Tozasertib (first compound 0.3 µM); 0.937 in the test with Erlotinib + Navitoclax (first compound 0.02 µM); 0.784 with Erlotinib + Navitoclax (first compound 0.2 µM). For the same cell line, the relative viability with Erlotinib + Navitoclax (first compound 0.6325 µM) was 0.725; with Erlotinib + Navitoclax (first compound 2 µM) it was 0.746.
Consider RERF-LC-KJ, for which the relative viability with Erlotinib + Foretinib (first compound 0.02 µM) is 0.875; with Erlotinib + Foretinib (first compound 0.2 µM), 0.834; with Erlotinib + Foretinib (first compound 0.6325 µM) it was 0.803; with Erlotinib + Foretinib (first compound 2 µM), 0.715; with AT9283 + Dasatinib (first compound 0.003 µM), 0.864; with AT9283 + Dasatinib (first compound 0.03 µM) it was 0.391. Further, the relative viability came out at 0.212 with AT9283 + Dasatinib (first compound 0.09487 µM); 0.188 in the test with AT9283 + Dasatinib (first compound 0.3 µM); 1.24 in the test with AT9283 + Luminespib (first compound 0.003 µM); 0.792 with AT9283 + Luminespib (first compound 0.03 µM); 0.362 in the test with AT9283 + Luminespib (first compound 0.09487 µM); 0.28 in the test with AT9283 + Luminespib (first compound 0.3 µM). Moreover, the relative viability with AT9283 + Tozasertib (first compound 0.003 µM) amounted to 0.42; in the test with AT9283 + Tozasertib (first compound 0.03 µM), 0.242; in the test with AT9283 + Tozasertib (first compound 0.09487 µM) it was 0.203; in the test with AT9283 + Tozasertib (first compound 0.3 µM), 0.247; with Erlotinib + Navitoclax (first compound 0.02 µM), 0.861; in the test with Erlotinib + Navitoclax (first compound 0.2 µM), 0.663. Also, the relative viability in the test with Erlotinib + Navitoclax (first compound 0.6325 µM) amounted to 0.583; with Erlotinib + Navitoclax (first compound 2 µM) it was 0.771.
With NCI-H1755, the relative viability in the test with Erlotinib + Foretinib (first compound 0.02 µM) came to 0.942; with Erlotinib + Foretinib (first compound 0.2 µM), 0.936; with Erlotinib + Foretinib (first compound 0.6325 µM) it was 0.916; with Erlotinib + Foretinib (first compound 2 µM), 0.907; with AT9283 + Dasatinib (first compound 0.003 µM), 0.451; with AT9283 + Dasatinib (first compound 0.03 µM), 0.437. The relative viability with AT9283 + Dasatinib (first compound 0.09487 µM) worked out at 0.265; with AT9283 + Dasatinib (first compound 0.3 µM), 0.272; with AT9283 + Luminespib (first compound 0.003 µM) it was 0.607; with AT9283 + Luminespib (first compound 0.03 µM), 0.446; in the test with AT9283 + Luminespib (first compound 0.09487 µM) it was 0.553; in the test with AT9283 + Luminespib (first compound 0.3 µM), 0.407. In addition, the relative viability was 0.624 in the test with AT9283 + Tozasertib (first compound 0.003 µM); 0.469 with AT9283 + Tozasertib (first compound 0.03 µM); 0.419 with AT9283 + Tozasertib (first compound 0.09487 µM); 0.367 with AT9283 + Tozasertib (first compound 0.3 µM); 1.02 with Erlotinib + Navitoclax (first compound 0.02 µM); 1 in the test with Erlotinib + Navitoclax (first compound 0.2 µM). Moreover, in the test with Erlotinib + Navitoclax (first compound 0.6325 µM), the relative viability came out at 0.976.
Regarding NCI-H596, the relative viability is 0.759 in the test with Erlotinib + Foretinib (first compound 0.02 µM); 0.847 with Erlotinib + Foretinib (first compound 0.2 µM); 0.995 with Erlotinib + Foretinib (first compound 0.6325 µM); 0.758 with Erlotinib + Foretinib (first compound 2 µM); 0.59 with AT9283 + Dasatinib (first compound 0.003 µM); 0.597 with AT9283 + Dasatinib (first compound 0.03 µM). In addition, the relative viability with AT9283 + Dasatinib (first compound 0.09487 µM) was found to be 0.565; with AT9283 + Dasatinib (first compound 0.3 µM) it was 0.297; with AT9283 + Luminespib (first compound 0.003 µM) it was 1.04; with AT9283 + Luminespib (first compound 0.03 µM), 1.08; in the test with AT9283 + Luminespib (first compound 0.09487 µM), 0.819; in the test with AT9283 + Luminespib (first compound 0.3 µM), 0.725. The relative viability turned out to be 0.943 with AT9283 + Tozasertib (first compound 0.003 µM); 0.839 in the test with AT9283 + Tozasertib (first compound 0.03 µM); 0.933 with AT9283 + Tozasertib (first compound 0.09487 µM); 0.553 with AT9283 + Tozasertib (first compound 0.3 µM); 1.02 with Erlotinib + Navitoclax (first compound 0.02 µM); 0.751 with Erlotinib + Navitoclax (first compound 0.2 µM). Further, the relative viability stood at 1.06 with Erlotinib + Navitoclax (first compound 0.6325 µM) and 0.813 with Erlotinib + Navitoclax (first compound 2 µM).
As for NCI-H1734, the relative viability with Erlotinib + Foretinib (first compound 0.02 µM) turned out to be 0.789; in the test with Erlotinib + Foretinib (first compound 0.6325 µM), 0.921; with Erlotinib + Foretinib (first compound 2 µM), 0.768; in the test with AT9283 + Dasatinib (first compound 0.003 µM), 0.332; in the test with AT9283 + Dasatinib (first compound 0.03 µM), 0.301; in the test with AT9283 + Dasatinib (first compound 0.09487 µM), 0.187. For the same cell line, the relative viability with AT9283 + Dasatinib (first compound 0.3 µM) was found to be 0.158; with AT9283 + Luminespib (first compound 0.003 µM), 0.221; with AT9283 + Luminespib (first compound 0.03 µM), 0.145; with AT9283 + Luminespib (first compound 0.09487 µM) it was 0.165; in the test with AT9283 + Luminespib (first compound 0.3 µM) it was 0.18; with AT9283 + Tozasertib (first compound 0.003 µM), 0.255. Besides, the relative viability with AT9283 + Tozasertib (first compound 0.03 µM) stood at 0.249; with AT9283 + Tozasertib (first compound 0.09487 µM), 0.233; in the test with AT9283 + Tozasertib (first compound 0.3 µM) it was 0.186; in the test with Erlotinib + Navitoclax (first compound 0.02 µM), 0.852; in the test with Erlotinib + Navitoclax (first compound 0.2 µM), 0.795; with Erlotinib + Navitoclax (first compound 0.6325 µM), 0.907. Also, the relative viability with Erlotinib + Navitoclax (first compound 2 µM) came to 0.75.
With NCI-H2009, the relative viability was determined as 1.28 in the test with Erlotinib + Foretinib (first compound 0.02 µM); 1.24 in the test with Erlotinib + Foretinib (first compound 0.2 µM); 1.36 with Erlotinib + Foretinib (first compound 0.6325 µM); 1.23 with Erlotinib + Foretinib (first compound 2 µM); 0.308 in the test with AT9283 + Dasatinib (first compound 0.003 µM); 0.212 with AT9283 + Dasatinib (first compound 0.03 µM). Further, the relative viability in the test with AT9283 + Dasatinib (first compound 0.09487 µM) was found to be 0.124; in the test with AT9283 + Dasatinib (first compound 0.3 µM), 0.099; in the test with AT9283 + Luminespib (first compound 0.003 µM) it was 1.04; with AT9283 + Luminespib (first compound 0.03 µM) it was 0.978; in the test with AT9283 + Luminespib (first compound 0.09487 µM), 0.736; with AT9283 + Luminespib (first compound 0.3 µM), 0.325. For the same cell line, the relative viability with AT9283 + Tozasertib (first compound 0.003 µM) is 0.737; in the test with AT9283 + Tozasertib (first compound 0.03 µM), 0.514; in the test with AT9283 + Tozasertib (first compound 0.09487 µM), 0.399; with AT9283 + Tozasertib (first compound 0.3 µM) it was 0.226; in the test with Erlotinib + Navitoclax (first compound 0.02 µM), 1.25; in the test with Erlotinib + Navitoclax (first compound 0.2 µM) it was 1.24. Also, the figures for the relative viability in the test with Erlotinib + Navitoclax (first compound 0.6325 µM) and in the test with Erlotinib + Navitoclax (first compound 2 µM) were 1.24 and 1.19, respectively.
